Laboratory results: patent US20150105252A1, “SUBSTITUTED PYRAZOLES AS HERBICIDES” (E I DU PONT DE NEMOURS AND COMPANY, priority 2013, published 2015)

Experiments:
blackgrass = experiment: Test C preemergence; format: in vivo, Alopecurus myosuroides; settings: preemergence
Outline: (§1)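 Greenhouse pot test: preemergence application onto freshly seeded loam/sand mix, postemergence application onto seedlings (1–4 leaves, 2–18 cm) in peat-vermiculite substrate. Responses scored visually 13 to 15 days later relative to controls, where 0 means no effect and 100 means complete control; a dash indicates no result.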

rice = experiment: Test B flood; format: in vivo, Oryza sativa; settings: 250 g ai/ha, visual rating on 0 to 100 scale (0 no effect, 100 complete control), 13 to 15 days
Outline: (§2)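 Plants were grown to the 2-leaf stage and pots flooded to 3 cm above soil. Compounds were applied directly into the paddy water, with depth kept for the test. After 13–15 days in greenhouse, response was rated visually against controls on a 0 (no effect) to 100 (complete control) scale.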

pigweed = experiment: Test C postemergence; format: in vivo, Amaranthus retroflexus
Outline: as §1

foxtail, giant = experiment: Test C postemergence; format: in vivo, Setaria faberii
Outline: as §1

lambsquarters = experiment: Test C preemergence; format: in vivo, Chenopodium album; settings: preemergence
Outline: as §1

barnyardgrass = experiment: Test B flood; format: in vivo, Echinochloa crus-galli; settings: 250 g ai/ha, visual rating on 0 to 100 scale (0 no effect, 100 complete control), 13 to 15 days
Outline: as §2

wheat = experiment: Test C preemergence; format: in vivo, Triticum aestivum; settings: preemergence
Outline: as §1

morningglory = experiment: Test C postemergence; format: in vivo, Ipomoea coccinea
Outline: as §1

nutsedge, yellow [1] = experiment: Test C postemergence; format: in vivo, Cyperus esculentus
Outline: as §1

oat, wild = experiment: Test C postemergence; format: in vivo, Avena fatua
Outline: as §1

ryegrass, Italian = experiment: Test C postemergence; format: in vivo, Lolium multiflorum; settings: for Plant response rating, Ryegrass, Italian: postemergence
Outline: as §1

nutsedge, yellow [2] = experiment: Test C preemergence; format: in vivo, Cyperus esculentus; settings: preemergence
Outline: as §1

johnsongrass = experiment: Test C postemergence; format: in vivo, Sorghum halepense
Outline: as §1

[3] = 31 g ai/ha, visual rating, scale 0 to 100 (0 no effect, 100 complete control), 13 to 15 days
[4] = 62 g ai/ha, scale 0 to 100 (0 no effect, 100 complete control), 13 to 15 days
[5] = 125 g ai/ha, 13 to 15 days, scale 0 to 100, 0 = no effect, 100 = complete control
[6] = 250 g ai/ha, scale 0 to 100, 0 is no effect, 100 is complete control
[7] = Postemergence, 31 g ai/ha, visually evaluated after 13 to 15 days
[8] = postemergence, 62 g ai/ha, scale 0 to 100
[9] = postemergence, 250 g ai/ha, scale 0 to 100 (0 no effect, 100 complete control)
[10] = postemergence, 125 g ai/ha, scale 0 to 100, 0 no effect, 100 complete control

O=C(NC1CC1)c1cc(CCCl)n(Cc2ccnc(C(F)(F)F)c2)n1 [Compound 144]
Blackgrass plant response rating (blackgrass; [3]): 40
Blackgrass plant response rating (blackgrass; [4]): 40
Plant response rating, Blackgrass (blackgrass; [5]): 90
Blackgrass plant response rating (blackgrass; [6]): 90
Plant response rating, Rice (rice): 0
Plant response rating (scale of 0 to 100 where 0 is no effect and 100 is complete control), Pigweed (pigweed; [7]): 65
Pigweed plant response rating (pigweed; [8]): 75
Plant response rating, Pigweed (pigweed; [9]): 95
Plant response rating, Pigweed (pigweed; [10]): 85
Plant response rating (scale of 0 to 100 where 0 is no effect and 100 is complete control), Foxtail, Giant (foxtail, giant; [7]): 5
Foxtail, Giant plant response rating (foxtail, giant; [8]): 10
Plant response rating, Foxtail, Giant (foxtail, giant; [9]): 25
Plant response rating, Foxtail, Giant (foxtail, giant; [10]): 15
Lambsquarters plant response rating (lambsquarters; [3]): 95
Lambsquarters plant response rating (lambsquarters; [4]): 98
Plant response rating, Lambsquarters (lambsquarters; [5]): 98
Lambsquarters plant response rating (lambsquarters; [6]): 98
Plant response rating, Barnyardgrass (barnyardgrass): 30
Wheat plant response rating (wheat; [3]): 5
Wheat plant response rating (wheat; [4]): 40
Plant response rating, Wheat (wheat; [5]): 80
Wheat plant response rating (wheat; [6]): 90
Plant response rating (scale of 0 to 100 where 0 is no effect and 100 is complete control), Morningglory (morningglory; [7]): 35
Morningglory plant response rating (morningglory; [8]): 40
Plant response rating, Morningglory (morningglory; [9]): 98
Plant response rating, Morningglory (morningglory; [10]): 85
Plant response rating (scale of 0 to 100 where 0 is no effect and 100 is complete control), Nutsedge, Yellow (nutsedge, yellow [1]; [7]): 10
Nutsedge, Yellow plant response rating (nutsedge, yellow [1]; [8]): 5
Plant response rating, Nutsedge, Yellow (nutsedge, yellow [1]; [9]): 35
Plant response rating, Nutsedge, Yellow (nutsedge, yellow [1]; [10]): 5
Plant response rating (scale of 0 to 100 where 0 is no effect and 100 is complete control), Oat, Wild (oat, wild; [7]): 15
Oat, Wild plant response rating (oat, wild; [8]): 10
Plant response rating, Oat, Wild (oat, wild; [9]): 45
Plant response rating, Oat, Wild (oat, wild; [10]): 20
Plant response rating (scale of 0 to 100 where 0 is no effect and 100 is complete control), Ryegrass, Italian (ryegrass, Italian; [7]): 5
Plant response rating, Ryegrass, Italian (ryegrass, Italian; 250 g ai/ha, scale 0 to 100 (0 no effect, 100 complete control)): 5
Plant response rating, Ryegrass, Italian (ryegrass, Italian; 125 g ai/ha, scale 0 to 100, 0 no effect, 100 complete control): 5
Nutsedge, Yellow plant response rating (nutsedge, yellow [2]; [3]): 0
Nutsedge, Yellow plant response rating (nutsedge, yellow [2]; [4]): 45
Plant response rating, Nutsedge, Yellow (nutsedge, yellow [2]; [5]): 65
Nutsedge, Yellow plant response rating (nutsedge, yellow [2]; [6]): 90
Plant response rating (scale of 0 to 100 where 0 is no effect and 100 is complete control), Johnsongrass (johnsongrass; [7]): 5
Johnsongrass plant response rating (johnsongrass; [8]): 5
Plant response rating, Johnsongrass (johnsongrass; [9]): 15
Plant response rating, Johnsongrass (johnsongrass; [10]): 10
